Experimental findings from ChEMBL document CHEMBL5512662, “Illuminating Dark Chemical Matter Using the Cell Painting Assay” (J Med Chem, 2024) are described below.

The first assay relates to C3H 10T1/2. In words: Inhibition of purmorphamine-induced osteoblast differentiation in mouse C3H 10T1/2 cells assessed as reduction in alkaline phosphatase level preincubated for 1 hr followed by purmorphamine addition for 4 days by luminescence based assay. In kind it is functional, cell-based.
As to `COCCNC(=O)C1CCN(C(=O)c2cc3sccc3n2Cc2ccc(F)cc2)CC1`, the IC50 was found to be 90 nM.

For `CCOc1ccc(Oc2nc(Nc3ccc(C)cc3)nc(N(C)C)n2)nn1`, the IC50 was 320 nM. Same read-out and setting: for `CN(CCCNC(=O)c1nn(C)c2c1CS(=O)(=O)c1ccccc1-2)Cc1ccccc1` the value was 310 nM. For the compound `COc1ccccc1CCNC(=O)CCCn1nc(C)c2c(C)n(-c3ccc(C)cc3)nc2c1=O`, the IC50 was found to be 540 nM.

A further assay concerns Shh Light II. Description: Inhibition of purmorphamine-induced osteoblast differentiation in mouse Shh Light II cells preincubated for 1 hr followed by purmorphamine addition for 48 hrs by luminescence based reporter gene assay. In kind it is functional, cell-based.
`COCCNC(=O)C1CCN(C(=O)c2cc3sccc3n2Cc2ccc(F)cc2)CC1` returned an IC50 of 470 nM. On the same count and under the same terms, for `CN(CCCNC(=O)c1nn(C)c2c1CS(=O)(=O)c1ccccc1-2)Cc1ccccc1` the value was 2170 nM. Still for that read-out and setting: for `COc1ccccc1CCNC(=O)CCCn1nc(C)c2c(C)n(-c3ccc(C)cc3)nc2c1=O` the value was 1400 nM.
